Measured values taken from PubChem BioAssay (NCI).
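96-well plates; 48 h exposure; 5 concentrations. Endpoints by linear interpolation between flanking doses. Not reached: highest tested concentration assigned. TGI: concentration producing complete growth inhibition.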

Legend:
Experiment in all cases: inhibition of tumour cell growth, NCI panel, 48 h
SN12C renal = system: SN12C renal
UO-31 renal = system: UO-31 renal
ACHN renal = system: ACHN renal
HL-60(TB) leukemia = system: HL-60(TB) leukemia
HCC-2998 colon = system: HCC-2998 colon
HCT-116 colon = system: HCT-116 colon
A498 renal = system: A498 renal
SW-620 colon = system: SW-620 colon
M14 melanoma = system: M14 melanoma
MDA-MB-231 breast = system: MDA-MB-231 breast
EKVX NSCLC = system: EKVX NSCLC
OVCAR-5 ovarian = system: OVCAR-5 ovarian
SF-268 CNS = system: SF-268 CNS
BT-549 breast = system: BT-549 breast
786-0 renal = system: 786-0 renal
CCRF-CEM leukemia = system: CCRF-CEM leukemia
NCI/ADR-RES ovarian = system: NCI/ADR-RES ovarian
U251 CNS = system: U251 CNS
MDA-N = system: MDA-N
RPMI-8226 leukemia = system: RPMI-8226 leukemia
TK-10 renal = system: TK-10 renal
SF-295 CNS = system: SF-295 CNS
UACC-62 melanoma = system: UACC-62 melanoma
HCT-15 colon = system: HCT-15 colon
MDA-MB-435 = system: MDA-MB-435
MOLT-4 leukemia = system: MOLT-4 leukemia
PC-3 prostate = system: PC-3 prostate
DU-145 prostate = system: DU-145 prostate
SK-MEL-28 melanoma = system: SK-MEL-28 melanoma
T-47D breast = system: T-47D breast
SF-539 CNS = system: SF-539 CNS
NCI-H23 lung = system: NCI-H23 lung
A549 NSCLC = system: A549 NSCLC
OVCAR-4 ovarian = system: OVCAR-4 ovarian
CAKI-1 renal = system: CAKI-1 renal
HT29 colon = system: HT29 colon
UACC-257 melanoma = system: UACC-257 melanoma
HOP-92 NSCLC = system: HOP-92 NSCLC
LOX IMVI melanoma = system: LOX IMVI melanoma
SK-OV-3 ovarian = system: SK-OV-3 ovarian
OVCAR-3 ovarian = system: OVCAR-3 ovarian
OVCAR-8 ovarian = system: OVCAR-8 ovarian
NCI-H460 lung = system: NCI-H460 lung
SNB-75 CNS = system: SNB-75 CNS
SNB-19 CNS = system: SNB-19 CNS
NCI-H522 lung = system: NCI-H522 lung
K-562 leukemia = system: K-562 leukemia
HS 578T breast = system: HS 578T breast
SK-MEL-5 melanoma = system: SK-MEL-5 melanoma
KM12 colon = system: KM12 colon
NCI-H226 lung = system: NCI-H226 lung
HOP-62 NSCLC = system: HOP-62 NSCLC
COLO 205 colon = system: COLO 205 colon
IGROV1 ovarian = system: IGROV1 ovarian
MCF7 breast = system: MCF7 breast
SK-MEL-2 melanoma = system: SK-MEL-2 melanoma
RXF 393 renal = system: RXF 393 renal
MALME-3M melanoma = system: MALME-3M melanoma

COC(=O)C1=COC(C)C2C[n+]3ccc4c([nH]c5ccccc54)c3CC12 (stereo unspecified)
TGI (SN12C renal): > 100 µM | TGI (UO-31 renal): > 100 µM | TGI (ACHN renal): > 100 µM | TGI (HL-60(TB) leukemia): > 100 µM | TGI (HCC-2998 colon): > 100 µM | TGI (HCT-116 colon): > 100 µM | TGI (A498 renal): > 100 µM | TGI (SW-620 colon): > 100 µM | TGI (M14 melanoma): > 100 µM | TGI (MDA-MB-231 breast): > 100 µM | TGI (EKVX NSCLC): > 100 µM | TGI (OVCAR-5 ovarian): > 100 µM | TGI (SF-268 CNS): > 100 µM | TGI (BT-549 breast): > 100 µM | TGI (786-0 renal): > 100 µM | TGI (CCRF-CEM leukemia): > 100 µM | TGI (NCI/ADR-RES ovarian): > 100 µM | TGI (U251 CNS): > 100 µM | TGI (MDA-N): > 100 µM | TGI (RPMI-8226 leukemia): > 100 µM | TGI (TK-10 renal): > 100 µM | TGI (SF-295 CNS): > 100 µM | TGI (UACC-62 melanoma): > 100 µM | TGI (HCT-15 colon): > 100 µM | TGI (MDA-MB-435): > 100 µM | TGI (MOLT-4 leukemia): > 100 µM | TGI (PC-3 prostate): > 100 µM | TGI (DU-145 prostate): > 100 µM | TGI (SK-MEL-28 melanoma): > 100 µM | TGI (T-47D breast): > 100 µM | TGI (SF-539 CNS): > 100 µM | TGI (NCI-H23 lung): > 100 µM | TGI (A549 NSCLC): > 100 µM | TGI (OVCAR-4 ovarian): > 100 µM | TGI (CAKI-1 renal): > 100 µM | TGI (HT29 colon): > 100 µM | TGI (UACC-257 melanoma): > 100 µM | TGI (HOP-92 NSCLC): > 100 µM | TGI (LOX IMVI melanoma): > 100 µM | TGI (SK-OV-3 ovarian): > 100 µM | TGI (OVCAR-3 ovarian): > 100 µM | TGI (OVCAR-8 ovarian): > 100 µM | TGI (NCI-H460 lung): > 100 µM | TGI (SNB-75 CNS): > 100 µM | TGI (SNB-19 CNS): > 100 µM | TGI (NCI-H522 lung): > 100 µM | TGI (K-562 leukemia): > 100 µM | TGI (HS 578T breast): > 100 µM | TGI (SK-MEL-5 melanoma): > 100 µM | TGI (KM12 colon): > 100 µM | TGI (NCI-H226 lung): > 100 µM | TGI (HOP-62 NSCLC): > 100 µM | TGI (COLO 205 colon): > 100 µM | TGI (IGROV1 ovarian): > 100 µM | TGI (MCF7 breast): > 100 µM | TGI (SK-MEL-2 melanoma): > 100 µM

C/C=C1/CN2[C@@H](C3=C[C@@H]4[C@@H]5N(C3=O)c3ccccc3[C@@]53CCN5C/C(=C/C)[C@@H]4C[C@H]53)C[C@@]34c5ccccc5N5C(=O)CC=C([C@H]1C[C@H]23)[C@H]54
TGI (SN12C renal): 9.95 µM | TGI (UO-31 renal): 8.34 µM | TGI (ACHN renal): 12.1 µM | TGI (HL-60(TB) leukemia): 2.2 µM | TGI (HCC-2998 colon): 8.75 µM | TGI (HCT-116 colon): 9.07 µM | TGI (A498 renal): 14.5 µM | TGI (SW-620 colon): 10.4 µM | TGI (M14 melanoma): 2.37 µM | TGI (MDA-MB-231 breast): 9.19 µM | TGI (EKVX NSCLC): 12.1 µM | TGI (OVCAR-5 ovarian): 15 µM | TGI (SF-268 CNS): 14.1 µM | TGI (BT-549 breast): 15.7 µM | TGI (786-0 renal): 7.8 µM | TGI (CCRF-CEM leukemia): 2.94 µM | TGI (NCI/ADR-RES ovarian): 33.6 µM | TGI (U251 CNS): 7.67 µM | TGI (MDA-N): 10.4 µM | TGI (TK-10 renal): 15 µM | TGI (SF-295 CNS): 16.4 µM | TGI (UACC-62 melanoma): 9.1 µM | TGI (HCT-15 colon): 10.3 µM | TGI (MDA-MB-435): 14.1 µM | TGI (MOLT-4 leukemia): 6.28 µM | TGI (PC-3 prostate): 9.72 µM | TGI (DU-145 prostate): 22.1 µM | TGI (RXF 393 renal): 10.6 µM | TGI (SK-MEL-28 melanoma): 3.91 µM | TGI (T-47D breast): 49.2 µM | TGI (SF-539 CNS): 2.87 µM | TGI (NCI-H23 lung): 14.3 µM | TGI (A549 NSCLC): 15.3 µM | TGI (OVCAR-4 ovarian): 19.9 µM | TGI (CAKI-1 renal): 15.7 µM | TGI (HT29 colon): 8.08 µM | TGI (UACC-257 melanoma): 2.9 µM | TGI (HOP-92 NSCLC): 13.2 µM | TGI (SK-OV-3 ovarian): 16.8 µM | TGI (OVCAR-3 ovarian): 15.8 µM | TGI (OVCAR-8 ovarian): 13.1 µM | TGI (NCI-H460 lung): 15.4 µM | TGI (SNB-75 CNS): 17.4 µM | TGI (MALME-3M melanoma): 12.5 µM | TGI (SNB-19 CNS): 14.7 µM | TGI (NCI-H522 lung): 14.6 µM | TGI (K-562 leukemia): 50 µM | TGI (HS 578T breast): 17.3 µM | TGI (SK-MEL-5 melanoma): 8.93 µM | TGI (KM12 colon): 17 µM | TGI (NCI-H226 lung): 16.5 µM | TGI (HOP-62 NSCLC): 17.5 µM | TGI (COLO 205 colon): 7.54 µM | TGI (MCF7 breast): 10.7 µM | TGI (SK-MEL-2 melanoma): 11.6 µM
